Patent US20240041042A1, “1-(PYRIDYL)-5-AZINYLPYRAZOLE DERIVATIVES, AND THEIR USE FOR CONTROL OF UNDESIRED PLANT GROWTH” (Bayer Aktiengesellschaft, priority 2020, published 2024)
Like-named read-outs stand apart in the source and are kept apart here.

Tests used:
Assay type in all cases: in vivo
[1] = system: Alopecurus myosuroides (ALOMY); test: Pre-emergence herbicidal action against ALOMY; settings: scored visually after about 3 weeks, 100% = plants have died
Method in brief: (§1)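 Greenhouse pot trial: seeds sown, soil-covered, sprayed before emergence with compound in water (0.5% additive; 600 l/ha; ≤320 g/ha). Scoring visual, ~3 weeks, 0–100% scale vs untreated.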

[2] = system: Amaranthus retroflexus (AMARE); test: Pre-emergence herbicidal action against AMARE; settings: visual scoring after about 3 weeks vs untreated controls
Method in brief: as §1

Avena fatua (AVEFA) [3] = test: Pre-emergence herbicidal action against AVEFA; settings: 320 g/ha, visual scoring after about 3 weeks vs untreated controls
Method in brief: as §1

[4] = system: Digitaria sanguinalis (DIGSA); test: Pre-emergence herbicidal action against DIGSA
Method in brief: as §1

[5] = system: Echinochloa crus-galli (ECHCG); test: Pre-emergence herbicidal action against ECHCG; settings: dosage 320 g/ha
Method in brief: as §1

Lolium rigidum (LOLRI) [6] = test: Pre-emergence herbicidal action against LOLRI
Method in brief: as §1

[7] = system: Polygonum convolvulus (POLCO); test: Pre-emergence herbicidal action against POLCO
Method in brief: as §1

Setaria viridis (SETVI) [8] = test: Pre-emergence herbicidal action against SETVI
Method in brief: as §1

[9] = system: Verconica persica (VERPE); test: Pre-emergence herbicidal action against VERPE
Method in brief: as §1

Viola tricolor (VIOTR) [10] = test: Pre-emergence herbicidal action against VIOTR
Method in brief: as §1

Oryza sativa (ORYSA) [11] = settings: pre-emergence, crop plant compatibility, in comparison to untreated controls
Method in brief: (§2)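 Scoring: visual, % of untreated control, about 3 weeks after a pre-emergence application to the soil surface. Application used WP or EC formulations diluted in water with 0.5% additive at 600 l/ha; dosage levels are marked by suffixes a, b and c.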

[12] = system: Abutilon theophrasti (ABUTH); test: Post-emergence herbicidal action against ABUTH; settings: visual rating about 3 weeks after treatment vs untreated controls (100% = plants have died, 0% = like control plants)
Method in brief: (§3)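 Values are percent visual activity (0% like control, 100% plants dead) after about 3 weeks in the greenhouse. Treatment: post-emergence spray at one-leaf stage, 600 l/ha spray volume, 0.5% additive, doses 320 g/ha or lower.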

[13] = system: Alopecurus myosuroides (ALOMY); test: Post-emergence herbicidal action against ALOMY; settings: visual rating about 3 weeks after treatment vs untreated controls (100% = plants have died, 0% = like control plants)
Method in brief: as §3

[14] = system: Amaranthus retroflexus (AMARE); test: Post-emergence herbicidal action against AMARE; settings: 80 g/ha, visual rating about 3 weeks after treatment vs untreated controls (100% = plants have died, 0% = like control plants)
Method in brief: as §3

Avena fatua (AVEFA) [15] = test: Post-emergence herbicidal action against AVEFA; settings: visual rating about 3 weeks after treatment
Method in brief: as §3

[16] = system: Echinochloa crus-galli (ECHCG); test: Post-emergence herbicidal action against ECHCG
Method in brief: as §3

Lolium rigidum (LOLRI) [17] = test: Post-emergence herbicidal action against LOLRI; settings: dosage 80 g/ha
Method in brief: as §3

[18] = system: Matricaria inodora (MATIN); test: Post-emergence herbicidal action against MATIN; settings: dosage 80 g/ha
Method in brief: as §3

[19] = system: Pharbitis purpurea (PHBPU); test: Post-emergence herbicidal action against PHBPU
Method in brief: as §3

[20] = system: Polygonum convolvulus (POLCO); test: Post-emergence herbicidal action against POLCO; settings: dosage 80 g/ha
Method in brief: as §3

[21] = system: Verconica persica (VERPE); test: Post-emergence herbicidal action against VERPE
Method in brief: as §3

Viola tricolor (VIOTR) [22] = test: Post-emergence herbicidal action against VIOTR
Method in brief: as §3

Oryza sativa (ORYSA) [23] = settings: crop plant compatibility
Method in brief: (§4)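 One-leaf-stage crops (2–3 wk post-sowing, sandy loam, greenhouse) sprayed on green parts; 0.5% additive, 600 l/ha water. Rated by eye ~3 wk later, % vs untreated; suffixes a/b/c mark different dosages.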

[24] = system: Matricaria inodora (MATIN); test: Pre-emergence herbicidal action against MATIN; settings: dosage 320 g/ha
Method in brief: as §1

[25] = system: Digitaria sanguinalis (DIGSA); test: Post-emergence herbicidal action against DIGSA; settings: 80 g/ha, visual rating about 3 weeks after treatment
Method in brief: as §3

[26] = system: Pharbitis purpurea (PHBPU); test: Pre-emergence herbicidal action against PHBPU; settings: dosage 320 g/ha
Method in brief: as §1

Zea mays (ZEAMX) [27] = settings: pre-emergence, 80 g/ha, crop plant compatibility, in comparison to untreated controls
Method in brief: as §2

[28] = system: Triticum aestivum (TRZAS); settings: crop plant compatibility, effect vs untreated controls
Method in brief: as §4

Setaria viridis (SETVI) [29] = test: Post-emergence herbicidal action against SETVI; settings: dosage 320 g/ha
Method in brief: as §3

Zea mays (ZEAMX) [30] = settings: crop plant compatibility, 80 g/ha, effect vs untreated controls
Method in brief: as §4

[31] = 80 g/ha, visual scoring after about 3 weeks vs untreated controls
[32] = 20 g/ha, effect vs untreated controls
[33] = 80 g/ha, effect in comparison to untreated controls

Row | SMILES | Pre-emergence action against ORYSA in % (Oryza sativa (ORYSA) [11]; 80 g/ha) | Post-emergence action against ORYSA in % (Oryza sativa (ORYSA) [23]; [32]) | Post-emergence action against ORYSA in % (Oryza sativa (ORYSA) [23]; [33]) | Pre-emergence action against ALOMY ([1]; 320 g/ha) | Pre-emergence action against AMARE in % ([2]; 80 g/ha) | Pre-emergence action against AMARE in % ([2]; 320 g/ha) | Pre-emergence action against AVEFA in % (Avena fatua (AVEFA) [3]) | Pre-emergence action against DIGSA in % [4, 31] | Pre-emergence action against DIGSA in % ([4]; dosage 320 g/ha) | Pre-emergence action against ECHCG in % [5] | Pre-emergence action against LOLRI in % (Lolium rigidum (LOLRI) [6]; dosage 320 g/ha) | Pre-emergence action against POLCO in % ([7]; dosage 320 g/ha) | Pre-emergence action against SETVI in % (Setaria viridis (SETVI) [8]; dosage 320 g/ha) | Pre-emergence action against VERPE in % ([9]; dosage 320 g/ha) | Pre-emergence action against VIOTR in % (Viola tricolor (VIOTR) [10]; 320 g/ha, Viola tricolor) | Post-emergence action against ABUTH in % ([12]; 80 g/ha) | Post-emergence action against ALOMY in % ([13]; 80 g/ha) | Post-emergence action against AMARE in % [14] | Post-emergence action against PHBPU in % ([19]; dosage 80 g/ha) | Post-emergence action against VERPE in % ([21]; dosage 80 g/ha) | further results
1 | COC(=O)[C@@H](C)NC(=O)COc1nn(-c2ccccn2)c(-c2ccnc(F)c2)c1Br [Example I-59] | 20% | 0% | 0% | 100% | 100% | 100% | 80% | 100% | 100% | 100% | 100% | 90% | 100% | 90% | 90% | 80% | 90% | 90% | 80% | 90% | Pre-emergence action against ALOMY ([1]; 80 g/ha): 80%; Pre-emergence action against LOLRI in % (Lolium rigidum (LOLRI) [6]; dosage 80 g/ha): 80%; Pre-emergence action against POLCO in % ([7]; dosage 80 g/ha): 80%; Pre-emergence action against SETVI in % (Setaria viridis (SETVI) [8]; dosage 80 g/ha): 90%; Pre-emergence action against VIOTR in % (Viola tricolor (VIOTR) [10]; dosage 80 g/ha): 90%; Post-emergence action against AVEFA in % (Avena fatua (AVEFA) [15]; 80 g/ha): 80%; Post-emergence action against ECHCG in % ([16]; dosage 80 g/ha): 80%; Post-emergence action against LOLRI in % (Lolium rigidum (LOLRI) [17]): 80%; Post-emergence action against MATIN in % [18]: 80%; Post-emergence action against POLCO in % [20]: 80%; Post-emergence action against VIOTR in % (Viola tricolor (VIOTR) [22]; 80 g/ha): 80%
2 | CCOC(=O)CN(C)S(=O)(=O)NC(=O)COc1nn(-c2ccccn2)c(-c2ccc(F)nc2)c1Br [Example I-120] | 0% | 10% | 20% | 80% | – | 90% | – | 100% | 100% | – | 80% | – | 100% | 90% | 80% | 80% | 100% | 80% | 80% | 90% | Pre-emergence action against ORYSA in % (Oryza sativa (ORYSA) [11]; 320 g/ha): 10%
3 | O=C(O)COc1nn(-c2ccccn2)c(-c2ccc(F)nc2)c1I [Example I-103] | 0% | 0% | 0% | 100% | 80% | 90% | 80% | – | – | – | 100% | – | 90% | 90% | 90% | 80% | – | 80% | 80% | 80% | Pre-emergence action against PHBPU in % [26]: 80%; Pre-emergence action against ZEAMX in % (Zea mays (ZEAMX) [27]): 0%; Post-emergence action against TRZAS in % ([28]; 20 g/ha): 0%

Now from value to compound, other results behind:

Row | Pre-emergence action against ORYSA in % (Oryza sativa (ORYSA) [11]; 80 g/ha) | Post-emergence action against ORYSA in % (Oryza sativa (ORYSA) [23]; [32]) | Post-emergence action against ORYSA in % (Oryza sativa (ORYSA) [23]; [33]) | SMILES | Pre-emergence action against ALOMY ([1]; 320 g/ha) | Pre-emergence action against AMARE in % ([2]; 80 g/ha) | Pre-emergence action against AMARE in % ([2]; 320 g/ha) | Pre-emergence action against AVEFA in % (Avena fatua (AVEFA) [3]) | Pre-emergence action against DIGSA in % [4, 31] | Pre-emergence action against DIGSA in % ([4]; dosage 320 g/ha) | Pre-emergence action against ECHCG in % [5] | Pre-emergence action against LOLRI in % (Lolium rigidum (LOLRI) [6]; dosage 320 g/ha) | Pre-emergence action against POLCO in % ([7]; dosage 320 g/ha) | Pre-emergence action against SETVI in % (Setaria viridis (SETVI) [8]; dosage 320 g/ha) | Pre-emergence action against VERPE in % ([9]; dosage 320 g/ha) | Pre-emergence action against VIOTR in % (Viola tricolor (VIOTR) [10]; 320 g/ha, Viola tricolor) | Post-emergence action against ABUTH in % ([12]; 80 g/ha) | Post-emergence action against ALOMY in % ([13]; 80 g/ha) | Post-emergence action against AMARE in % [14] | Post-emergence action against PHBPU in % ([19]; dosage 80 g/ha) | Post-emergence action against VERPE in % ([21]; dosage 80 g/ha) | further results
4 | 0% | 0% | 0% | CCOC(=O)COc1nn(-c2ccccn2)c(-c2ccc(F)nc2)c1I [Example I-121] | 100% | 100% | 100% | 90% | 100% | 100% | 100% | 100% | 100% | 100% | 100% | 100% | – | 80% | – | – | 80% | Pre-emergence action against MATIN in % [24]: 80%; Post-emergence action against DIGSA in % [25]: 80%; Post-emergence action against ECHCG in % ([16]; dosage 80 g/ha): 80%; Post-emergence action against POLCO in % [20]: 80%; Post-emergence action against VIOTR in % (Viola tricolor (VIOTR) [22]; 80 g/ha): 80%
5 | 20% | – | 10% | CCOC(=O)COc1nn(-c2ncccc2C(F)(F)F)c(-c2cncc(F)c2)c1I [Example I-225] | 90% | – | 100% | 90% | – | – | 80% | – | 90% | 80% | 90% | 100% | – | – | – | 80% | 80% | Pre-emergence action against ALOMY ([1]; 80 g/ha): 80%; Pre-emergence action against MATIN in % [24]: 80%; Pre-emergence action against VERPE in % ([9]; dosage 80 g/ha): 80%; Pre-emergence action against VIOTR in % (Viola tricolor (VIOTR) [10]; dosage 80 g/ha): 90%; Pre-emergence action against ZEAMX in % (Zea mays (ZEAMX) [27]): 10%; Post-emergence action against ABUTH in % ([12]; 320 g/ha): 80%; Post-emergence action against ALOMY in % ([13]; 320 g/ha): 90%; Post-emergence action against AVEFA in % (Avena fatua (AVEFA) [15]; 320 g/ha): 80%; Post-emergence action against ECHCG in % ([16]; dosage 80 g/ha): 80%; Post-emergence action against ECHCG in % ([16]; dosage 320 g/ha): 90%; Post-emergence action against PHBPU in % ([19]; dosage 320 g/ha): 80%; Post-emergence action against SETVI in % (Setaria viridis (SETVI) [29]): 80%; Post-emergence action against VERPE in % ([21]; 320 g/ha, VERPE): 90%; Post-emergence action against VIOTR in % (Viola tricolor (VIOTR) [22]; 80 g/ha): 80%; Post-emergence action against VIOTR in % (Viola tricolor (VIOTR) [22]; 320 g/ha): 80%; Post-emergence action against TRZAS in % ([28]; 80 g/ha): 20%; Post-emergence action against ZEAMX in % (Zea mays (ZEAMX) [30]): 20%
